Test results published in patent US7148228B2, “Pyrazolopyrimidines and related analogs as HSP90-inhibitors” (Conforma Therapeutics Corporation, priority 2003, dated 2006).

What was measured:
HER2/Neu protein = assay: HER2 degradation assay; format: cell-based; conditions: Homo sapiens; 50% degradation of HER2/Neu protein, MCF7 cells, 16 h incubation
Description: MCF7 breast carcinoma cells (ATCC) were grown in Dulbecco's modified Eagle's medium (DMEM) containing 10% fetal bovine serum (FBS) and 10 mM HEPES, and plated in 24 well plates (50% confluent). Twenty-four hrs later (cells are 65–70% confluent), test compounds were added and incubated overnight for 16 h. […] The wells were washed with 1 mL phosphate buffered saline (PBS), and 200 μL trypsin was added to each well. After trypsinization was complete, 50 μL of FBS was added to each well. Then 200 μL cells was transferred to 96 well plates. The cells were pipetted up and down to obtain a single cell suspension. The plates were centrifuged at 2,500 rpm for 1 min using a Sorvall Legend RT™ tabletop centrifuge (Kendro Laboratory Products, Asheville, N.C.). The cells were then washed once in PBS containing 0.2% BSA and 0.2% sodium azide (BA buffer). Phycoerythrin (PE) conjugated anti HER2/Neu antibody (Becton Dickinson, #340552), or PE conjugated anti-keyhole limpet hemacyanin [KLH] (Becton Dickinson, #340761) control antibody was added at a dilution of 1:20 and 1:40 respectively (final concentration was 1 μg/mL) and the cells were pipeted up and down to form a single cell suspension, and incubated for 15 mins. The cells were washed twice with 200 μL BA buffer, and resuspended in 200 μL BA buffer, and transferred to FACSCAN tubes with an additional 250 μL BA buffer. Samples were analyzed using a FACSCalibur™ flow cytometer (Becton Dickinson, San Jose, Calif.) equipped with Argon-ion laser that emits 15 mW of 488 nm light for excitation of the PE fluorochrome. 10,000 events were collected per sample. A fluorescence histogram was generated and the mean fluorescence intensity (MFI) of each sample was determined using Cellquest software. The background was defined as the MFI generated from cells incubated with control IgG-PE, and was subtracted from each sample stained with the HER2/Neu antibody. Cells incubated with DMSO was always done as untreated controls since the compounds were resuspended in DMSO. Percent degradation of HER2 was calculated as follows: % HER2 degraded=[(MFI untreated cells−MFI treated cells)/MFI untreated cell]×100
IC50 is defined as the concentration at which there was 50% degradation of the HER2/Neu protein.

[1] = test system: MCF7 breast carcinoma cells; assay: MTS assay; format: cell-based; conditions: Homo sapiens, concentration giving 50% viable cell number
Description: MTS assays measures the cytotoxicity of geldanamycin derivatives. MTS (3-(4,5-dimethylthiazol-2-yl)-5-(3-carboxymethoxyphenyl)-2-(4-sulfophenyl)-2H-tetrazolium is a tetrazolium dye that is converted to a formazan product by dehydrogenase enzymes of metabolically active cells (Corey, A. et al. “Use of an aqueous soluble tetrazolium/formazan assay for cell growth assays in culture,” Cancer Commun. 1991, 3, 207–212). Cells were seeded in 96 well plates at 2000 cells/well and allowed to adhere overnight in Dulbecco's modified Eagle's medium supplemented with 10% fetal bovine serum. The final culture volume was 100 μl. Viable cell number was determined by using the Celltiter 96 AQueous Non-radioactive Cell Proliferation Assay (Promega, Madison Wis.). The MTS/PMS (phenazine methosulfate) solution was mixed at a ratio of 20:1, and 20 μL was added per well to 100 μl of culture medium. After 2–4 hours, the formation of the formazan product was measured at 490 nm absorbance using a multiwell plate spectrophotometer. Background was determined by measuring the Abs 490 nm of cell culture medium and MTS-PMS in the absence of cells and was subtracted from all values. Percent viable cells was calculated as follows: % viable cells=(Abs at 490 nm treated cells/Abs at 490 nm untreated cells)×100
The effect of selected compounds of the invention on MCF7 breast carcinoma cells according to the MTS assay is summarized in Table 2. IC50 was defined as the concentration of the compound which gave rise to 50% viable cell number.

[2] = test system: rHSP90 in the MCF7 cell lysates; assay: Cell lysate binding assay (biotin-GM competition); conditions: concentration for 50% inhibition of biotin-GM binding to rHSP90 in MCF7 cell lysates
Description: MCF7 breast carcinoma cell lysates were prepared by douncing in lysing buffer (20 mM HEPES, pH 7.3, 1 mM EDTA, 5 mM MgCl2, 100 mM KCl), and then incubated with or without test compound for 30 mins at 4° C., followed by incubation with biotin-GM linked to BioMag™ streptavidin magnetic beads (Qiagen) for 1 hr at 4° C. The tubes were placed on a magnetic rack, and the unbound supernatant removed. The magnetic beads were washed three times in lysis buffer and boiled for 5 mins at 95° C. in SDS-PAGE sample buffer. Samples were analyzed on SDS protein gels, and Western blots done for rHSP90. Bands in the Western Blots were quantitated using the Bio-rad Fluor-S MultiImager, and the % inhibition of binding of rHSP90 to the biotin-GM was calculated.
The IC50 reported is the concentration of test compound needed to achieve 50% inhibition of the biotin-GM binding to rHSP90 in the MCF7 cell lysates.

SMILES	IC50 (HER2/Neu protein)	IC50 [1]	IC50 [2]
Cc1cnc(Cn2nc(-c3ccccc3)c3c(Cl)nc(N)nc32)c(C)c1Br [Example 34, 1-(4-Bromo-3,5-dimethyl-pyridin-2-ylmethyl)-4-chloro-3-phenyl-1H-pyrazolo[3,4-d]pyrimidin-6-ylamine]	120 nM	1000 nM	
CCc1nn(Cc2ncc(C)c(Cl)c2C)c2nc(N)nc(Cl)c12 [Example 30, 4-Chloro-1-(4-chloro-3,5-dimethyl-pyridin-2-ylmethyl)-3-ethyl-1H-pyrazolo[3,4-d]pyrimidin-6-ylamine]	110 nM	1000 nM	
Cc1cnc(Cn2ncc3c(Cl)nc(N)nc32)c(C)c1Cl [Example 9, 4-Chloro-1-(4-chloro-3,5-dimethyl-pyridin-2-ylmethyl)-1H-pyrazolo[3,4-d]pyrimidin-6-ylamine]	90 nM	300 nM	
Cc1cnc(Cn2nc(-c3ccccc3)c3c(Cl)nc(N)nc32)c(C)c1Cl [Example 33, 4-Chloro-1-(4-chloro-3,5-dimethyl-pyridin-2-ylmethyl)-3-phenyl-1H-pyrazolo[3,4-d]pyrimidin-6-ylamine]	160 nM	600 nM	
Cc1c[n+]([O-])c(Cn2ncc3c(Cl)nc(N)nc32)c(C)c1Br [Example 15, 1-(4-Bromo-3,5-dimethyl-1-oxy-pyridin-2-ylmethyl)-4-chloro-1H-pyrazolo[3,4-d]pyrimidin-6-ylamine]	900 nM		
COc1c(C)c(Cl)nc(Cn2ncc3c(Cl)nc(N)nc32)c1C [Example 8, 4-Chloro-1-(6-chloro-4-methoxy-3,5-dimethyl-pyridin-2-ylmethyl)-1H-pyrazolo[3,4-d]pyrimidin-6-ylamine]	140 nM	500 nM	
CCc1nn(Cc2ncc(C)c(OC)c2C)c2nc(N)nc(Cl)c12 [Example 29, 4-Chloro-3-ethyl-1-(4-methoxy-3,5-dimethyl-pyridin-2-ylmethyl)-1H-pyrazolo[3,4-d]pyrimidin-6-ylamine]	850 nM	1000 nM	100 nM

Continued by falling IC50 (HER2/Neu protein), values first:

IC50 (HER2/Neu protein)	IC50 [1]	IC50 [2]	SMILES
90 nM	1000 nM	110 nM	Cc1cnc(Cn2ncc3c(Cl)nc(N)nc32)c(C)c1Br [Example 14, 1-(4-Bromo-3,5-dimethyl-pyridin-2-ylmethyl)-4-chloro-1H-pyrazolo[3,4-d]pyrimidin-6-ylamine]
50 nM	130 nM	140 nM	COc1c(C)cnc(Cn2ncc3c(Cl)nc(N)nc32)c1C [Example 7, 4-Chloro-1-(4-methoxy-3,5-dimethyl-pyridin-2-ylmethyl)-1H-pyrazolo[3,4-d]pyrimidin-6-ylamine]
50 nM	300 nM		COc1c(C)cnc(Cn2nc(C(C)C)c3c(Cl)nc(N)nc32)c1C [Example 31, 4-Chloro-3-isopropyl-1-(4-methoxy-3,5-dimethyl-pyridin-2-ylmethyl)-1H-pyrazolo[3,4-d]pyrimidin-6-ylamine]
50 nM		90 nM	Cc1cnc(Cn2nc(C)c3c(Cl)nc(N)nc32)c(C)c1Cl [Example 26, 4-Chloro-1-(4-chloro-3,5-dimethyl-pyridin-2-ylmethyl)-3-methyl-1H-pyrazolo[3,4-d]pyrimidin-6-ylamine]
40 nM	80 nM		COc1c(C)cnc(Cn2nc(-c3ccccc3)c3c(Cl)nc(N)nc32)c1C [Example 32, 4-Chloro-1-(4-methoxy-3,5-dimethyl-pyridin-2-ylmethyl)-3-phenyl-1H-pyrazolo[3,4-d]pyrimidin-6-ylamine]
40 nM	1000 nM		Cc1cnc(Cn2nc(C)c3c(Cl)nc(N)nc32)c(C)c1Br [Example 28, 1-(4-Bromo-3,5-dimethyl-pyridin-2-ylmethyl)-4-chloro-3-methyl-1H-pyrazolo[3,4-d]pyrimidin-6-ylamine]
40 nM	100 nM		COc1c(C)cnc(Cn2nc(C)c3c(Cl)nc(N)nc32)c1C [Example 23, 4-Chloro-1-(4-methoxy-3,5-dimethyl-pyridin-2-ylmethyl)-3-methyl-1H-pyrazolo[3,4-d]pyrimidin-6-ylamine]
30 nM	1000 nM		Cc1c[n+]([O-])c(Cn2nc(C)c3c(Cl)nc(N)nc32)c(C)c1Br [Example 24, 1-(4-Bromo-3,5-dimethyl-1-oxy-pyridin-2-ylmethyl)-4-chloro-3-methyl-1H-pyrazolo[3,4-d]pyrimidin-6-ylamine]
30 nM	300 nM		Cc1c[n+]([O-])c(Cn2nc(C)c3c(Cl)nc(N)nc32)c(C)c1Cl [Example 25, 4-Chloro-1-(4-chloro-3,5-dimethyl-1-oxy-pyridin-2-ylmethyl)-3-methyl-1H-pyrazolo[3,4-d]pyrimidin-6-ylamine]
20 nM	1000 nM	80 nM	Cc1c[n+]([O-])c(Cn2nc(-c3ccccc3)c3c(Cl)nc(N)nc32)c(C)c1Cl [Example 35, 4-Chloro-1-(4-chloro-3,5-dimethyl-1-oxy-pyridin-2-ylmethyl)-3-phenyl-1H-pyrazolo[3,4-d]pyrimidin-6-ylamine]
